In assay [1] the target is T1, BCAT2 (Homo sapiens, UniProt O15382).
T1 sequence (O15382 28-392): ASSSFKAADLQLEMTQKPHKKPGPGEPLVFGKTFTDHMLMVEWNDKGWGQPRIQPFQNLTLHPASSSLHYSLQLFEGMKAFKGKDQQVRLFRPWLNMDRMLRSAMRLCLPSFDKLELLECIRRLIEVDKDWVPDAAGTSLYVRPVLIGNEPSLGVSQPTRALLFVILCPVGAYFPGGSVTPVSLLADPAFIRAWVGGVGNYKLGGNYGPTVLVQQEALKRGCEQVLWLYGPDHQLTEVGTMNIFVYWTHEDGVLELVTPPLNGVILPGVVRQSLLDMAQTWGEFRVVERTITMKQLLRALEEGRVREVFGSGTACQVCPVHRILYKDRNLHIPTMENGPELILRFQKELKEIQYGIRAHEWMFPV
As to the kind of experiment: BCAT2 in vitro enzyme inhibition assay (hBCAT2, glutamate dehydrogenase/diaphorase/resazurin coupled fluorescence read). Type of assay: biochemical. The settings on record: hBCAT2, 1 h preincubation at 25° C., one hour reaction; average where tested multiple times. In outline:
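Coupled GDH/diaphorase/resazurin fluorescence (Ex 540/Em 590) read after 1 h reaction at 25 °C, SDS-stopped; enzyme (0.33 μg/mL in mix) first preincubated 1 h with compound, 10-point 3-fold series from 100 μM final, Tris pH 8.0 buffer with NaCl, BSA; technical duplicates, averaged across tests.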

Assay [2] concerns the target T1, BCAT2. As to the kind of experiment: BCAT2 cell inhibition using engineered A549 cells (MUT KO, BCAT1 KO; 13C6-KMV formation by LC-MS/MS). Set-up: expressed endogenous BCAT2; endogenous in cells; host or cells: A549 cells, MUT knockout and BCAT1 knockout. Type of assay: cell-based. In outline:
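Medium 13C6-KMV formation is read by LC-MS/MS after PFBHA derivatization with d8-KMV internal standard. Cells are CRISPR MUT/BCAT1 double-knockout A549 expressing endogenous BCAT2, given compound 15 min before labelled isoleucine (800 uM, added 1:1) for 24 h. CTG viability run in parallel; replicates averaged.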

For orientation: IC50 means the concentration that inhibits the measured activity by half. Regarding `N#Cc1ccc(F)c(C(=O)N[C@H]2CCC[C@@H](n3c(-c4ccccc4F)nc4cnc(-c5nc[nH]n5)cc43)C2)c1` [Example 77, 5-cyano-2-fluoro-N-((1S,3R)-3-(2-(2-fluorophenyl)-6-(1H-1,2,4-triazol-3-yl)-1H-imidazo[4,5-c]pyridin-1-yl)cyclohexyl)benzamide], the IC50 on BCAT2 [1] was less than 0.1 µM; on BCAT2 [2], 0.1 to 0.5 µM.
As to `CC(C)Cc1nc2cnc(-c3nc[nH]n3)cc2n1[C@@H]1CCC[C@H](NC(=O)c2cc(Cl)ccc2OCCO)C1` [Example 78, 5-chloro-2-(2-hydroxyethoxy)-N-((1S,3R)-3-(2-isobutyl-6-(1H-1,2,4-triazol-3-yl)-1H-imidazo[4,5-c]pyridin-1-yl)cyclohexyl)benzamide], the IC50 was less than 0.1 µM against BCAT2 [1] and 0.1 to 0.5 µM against BCAT2 [2].
In the case of `O=C(N[C@H]1CCC[C@@H](n2c(-c3ncccc3F)nc3cnc(-c4nc[nH]n4)cc32)C1)c1cc(F)ccc1F` [Example 80, 2,5-difluoro-N-((1S,3R)-3-(2-(3-fluoropyridin-2-yl)-6-(1H-1,2,4-triazol-3-yl)-1H-imidazo[4,5-c]pyridin-1-yl)cyclohexyl)benzamide], the IC50 at BCAT2 [1] is less than 0.1 µM; on BCAT2 [2], 0.1 to 0.5 µM.
On the same counts, the results for `N#Cc1ccccc1-c1nc2cnc(-c3nc[nH]n3)cc2n1[C@@H]1CCC[C@H](NC(=O)c2cc(F)ccc2F)C1` [Example 81, N-((1S,3R)-3-(2-(2-cyanophenyl)-6-(1H-1,2,4-triazol-3-yl)-1H-imidazo[4,5-c]pyridin-1-yl)cyclohexyl)-2,5-difluorobenzamide] are less than 0.1 µM and 0.1 to 0.5 µM.
On the same counts, the results for `O=C(N[C@H]1CCC[C@@H](n2c(-c3ccccc3F)nc3cnc(-c4nc[nH]n4)cc32)C1)c1cc(Cl)ccc1OCCCO` [Example 82, 5-chloro-N-((1S,3R)-3-(2-(2-fluorophenyl)-6-(1H-1,2,4-triazol-3-yl)-1H-imidazo[4,5-c]pyridin-1-yl)cyclohexyl)-2-(3-hydroxypropoxy)benzamide] are less than 0.1 µM and less than 0.1 µM.
In the case of `O=C(N[C@H]1CCC[C@@H](n2c(-c3ccccc3F)nc3cnc(-c4nc[nH]n4)cc32)C1)c1cc(Cl)ccc1OC1CCOC1` (stereo partly drawn) [Example 83, 5-chloro-N-((1S,3R)-3-(2-(2-fluorophenyl)-6-(1H-1,2,4-triazol-3-yl)-1H-imidazo[4,5-c]pyridin-1-yl)cyclohexyl)-2-((tetrahydrofuran-3-yl)oxy)benzamide], the IC50 on BCAT2 [1] and against BCAT2 [2] was less than 0.1 µM in each case.
As to `O=C(N[C@H]1CCC[C@@H](n2c(-c3ccccc3OCCO)nc3cnc(-c4nc[nH]n4)cc32)C1)c1cc(F)ccc1F` [Example 85, 2,5-difluoro-N-((1S,3R)-3-(2-(2-(2-hydroxyethoxy)phenyl)-6-(1H-1,2,4-triazol-3-yl)-1H-imidazo[4,5-c]pyridin-1-yl)cyclohexyl)benzamide], the IC50 is less than 0.1 µM on BCAT2 [1] and 0.1 to 0.5 µM on BCAT2 [2].
Consider `O=C(N[C@H]1CCC[C@@H](n2c(-c3ccccc3OCCO)nc3cnc(-c4nc[nH]n4)cc32)C1)c1cc(Cl)ccc1F` [Example 86, 5-chloro-2-fluoro-N-((1S,3R)-3-(2-(2-(2-hydroxyethoxy)phenyl)-6-(1H-1,2,4-triazol-3-yl)-1H-imidazo[4,5-c]pyridin-1-yl)cyclohexyl)benzamide], for which the IC50 against BCAT2 [1] was less than 0.1 µM; at BCAT2 [2], 0.1 to 0.5 µM.
Taken in the same sequence, the figures for `CC(Oc1ccc(Cl)cc1C(=O)N[C@H]1CCC[C@@H](n2c(-c3ccccc3F)nc3cnc(-c4nc[nH]n4)cc32)C1)C(F)(F)F` (stereo partly drawn) [Example 88, 5-chloro-N-((1S,3R)-3-(2-(2-fluorophenyl)-6-(1H-1,2,4-triazol-3-yl)-1H-imidazo[4,5-c]pyridin-1-yl)cyclohexyl)-2-((1,1,1-trifluoropropan-2-yl)oxy)benzamide] were less than 0.1 µM and 0.1 to 0.5 µM.
Regarding `O=C(N[C@H]1CCC[C@@H](n2c(-c3ccccc3F)nc3cnc(-c4nc[nH]n4)cc32)C1)c1cc(Cl)ccc1OC(CO)CO` [Example 90, 5-chloro-2-((1,3-dihydroxypropan-2-yl)oxy)-N-((1S,3R)-3-(2-(2-fluorophenyl)-6-(1H-1,2,4-triazol-3-yl)-1H-imidazo[4,5-c]pyridin-1-yl)cyclohexyl)benzamide], the IC50 was less than 0.1 µM on BCAT2 [1] and 0.1 to 0.5 µM on BCAT2 [2].
On the same counts, the results for `Cc1coc(-c2cc3c(cn2)nc(-c2ccccc2C#N)n3[C@@H]2CCC[C@H](NC(=O)c3cc(F)ccc3F)C2)n1` [Example 93, N-((1S,3R)-3-(2-(2-cyanophenyl)-6-(4-methyloxazol-2-yl)-1H-imidazo[4,5-c]pyridin-1-yl)cyclohexyl)-2,5-difluorobenzamide] are less than 0.1 µM and 0.1 to 0.5 µM.
Take `N#Cc1ccc(F)cc1C(=O)N[C@H]1CCC[C@@H](n2c(-c3ccccc3F)nc3cnc(-c4nc[nH]n4)cc32)C1` [Example 98, 2-cyano-5-fluoro-N-((1S,3R)-3-(2-(2-fluorophenyl)-6-(4H-1,2,4-triazol-3-yl)-1H-imidazo[4,5-c]pyridin-1-yl)cyclohexyl)benzamide]: the IC50 on BCAT2 [1] and at BCAT2 [2] was less than 0.1 µM in each case.
Turning to `COc1ccc(Cl)cc1C(=O)N[C@H]1CCC[C@@H](n2c(-c3ccccc3F)nc3cnc(-c4nc[nH]n4)cc32)[C@@H]1O` [Example 102, 5-chloro-N-((1S,2R,3R)-3-(2-(2-fluorophenyl)-6-(1H-1,2,4-triazol-3-yl)-1H-imidazo[4,5-c]pyridin-1-yl)-2-hydroxycyclohexyl)-2-methoxybenzamide], the IC50 on BCAT2 [1] and against BCAT2 [2] was less than 0.1 µM in each case.
Take `COc1ccc(Cl)cc1C(=O)N[C@@H]1CCCC[C@H](n2c(-c3ccccc3F)nc3cnc(-c4nc[nH]n4)cc32)[C@H]1O` [Example 104, 5-chloro-N-((1R,2S,3S)-3-(2-(2-fluorophenyl)-6-(1H-1,2,4-triazol-3-yl)-1H-imidazo[4,5-c]pyridin-1-yl)-2-hydroxycycloheptyl)-2-methoxybenzamide]: the IC50 on BCAT2 [1] was 0.5 to 1 µM; at BCAT2 [2] (read-out: BCAT2 Cell Inhibition (IC50), engineered A549 cells, 24 hours, 13C6-KMV in media, average where tested multiple times), more than 1 µM.
Take `COc1ccc(Cl)cc1C(=O)N[C@H]1CCCC[C@@H](n2c(-c3ccccc3F)nc3cnc(-c4nc[nH]n4)cc32)[C@@H]1O` [Example 105, 5-chloro-N-((1S,2R,3R)-3-(2-(2-fluorophenyl)-6-(1H-1,2,4-triazol-3-yl)-1H-imidazo[4,5-c]pyridin-1-yl)-2-hydroxycycloheptyl)-2-methoxybenzamide]: the IC50 at BCAT2 [1] and on BCAT2 [2] was less than 0.1 µM each time.
For the compound `COc1ccc(Cl)cc1C(=O)N[C@H]1C[C@H](OC)C[C@@H](n2c(-c3ccccc3F)nc3cnc(-c4nc[nH]n4)cc32)C1` [Example 106, 5-chloro-N-((1R,3S,5S)-3-(2-(2-fluorophenyl)-6-(1H-1,2,4-triazol-3-yl)-1H-imidazo[4,5-c]pyridin-1-yl)-5-methoxycyclohexyl)-2-methoxybenzamide], the IC50 on BCAT2 [1] and on BCAT2 [2] was less than 0.1 µM in each case.
On to `CO[C@H]1C[C@H](NC(=O)c2cc(F)ccn2)C[C@H](n2c(-c3ccccc3F)nc3cnc(-c4nc[nH]n4)cc32)C1` [Example 113, 4-fluoro-N-((1R,3S,5S)-3-(2-(2-fluorophenyl)-6-(1H-1,2,4-triazol-3-yl)-1H-imidazo[4,5-c]pyridin-1-yl)-5-methoxycyclohexyl)picolinamide], for which the IC50 against BCAT2 [1] and at BCAT2 [2] was less than 0.1 µM in each case.
For the compound `CO[C@@H]1C[C@H](NC(=O)c2cc(F)ccn2)C[C@H](n2c(-c3ccccc3F)nc3cnc(-c4nc[nH]n4)cc32)C1` [Example 114, 4-fluoro-N-((1R,3S,5R)-3-(2-(2-fluorophenyl)-6-(1H-1,2,4-triazol-3-yl)-1H-imidazo[4,5-c]pyridin-1-yl)-5-methoxycyclohexyl)picolinamide], the IC50 against BCAT2 [1] and against BCAT2 [2] was less than 0.1 µM in each case.
Turning to `CO[C@H]1C[C@H](NC(=O)c2cc(Cl)ccn2)C[C@H](n2c(-c3ccccc3F)nc3cnc(-c4nc[nH]n4)cc32)C1` [Example 116, 4-chloro-N-((1R,3S,5S)-3-(2-(2-fluorophenyl)-6-(1H-1,2,4-triazol-3-yl)-1H-imidazo[4,5-c]pyridin-1-yl)-5-methoxycyclohexyl)picolinamide], the IC50 on BCAT2 [1] and on BCAT2 [2] was less than 0.1 µM throughout.
As to `CO[C@H]1C[C@H](NC(=O)c2cc(Cl)ccn2)C[C@H](n2c(CC(C)C)nc3cnc(-c4ncccn4)cc32)C1` [Example 117, 4-chloro-N-((1R,3S,5S)-3-(2-isobutyl-6-(pyrimidin-2-yl)-1H-imidazo[4,5-c]pyridin-1-yl)-5-methoxycyclohexyl)picolinamide], the IC50 on BCAT2 [1] was less than 0.1 µM; against BCAT2 [2] it was 0.5 to 1 µM.
